This is an account of results in patent US20120289501A1, “Benzene-fused 6-membered oxygen-containing heterocyclic derivatives of bicyclic heteroaryls” (NOVARTIS AG, priority 2009, published 2012).

Each structure is given as a SMILES string.

This test deals with IGF1R (Homo sapiens, UniProt P08069). The test can be described thus: Cellular IGF-1R assay: inhibition of IGF1R phosphorylation in transduced Hek293 cells, capture ELISA (MSD). It is filed as cell-based. Also noted: Hek293 cells transduced with the corresponding receptors; expressed in transfected cells; host or cells: Hek293 (Hek293-IGF1R). On the procedure: In this assay the activity of the compounds of the invention against Insulin-like growth factor I (IGF-1) induced autophosphorylation of the IGF-IR is determined. The assay is conducted as follows: Compound-mediated inhibition of IGF1R and INSR phosphorylation in Hek293 cells transduced with the corresponding receptors is assessed in a capture ELISA format using the MSD (Meso Scale Discovery) platform. Briefly, 30′000 cells washed and diluted in starvation medium (DMEM high glucose supplemented with 0.1% BSA) are seeded in 90 μL per well into 96-well plates pre-coated with poly-D-lysine (0.1 mg/mL in PBS/0). After 24 h incubation at 37° C. and 5% CO2, dose-response effects are determined with 3-fold serial compound dilutions, starting at 10 μM. The final vehicle concentration is 0.1% DMSO in all wells. Following pre-incubation with compounds for 1 h, receptor phosphorylation is triggered by a 10 min exposure to 1.0 ng/μL IGF for Hek293-IGF1R cells, and 5.0 ng/μL insulin for Hek293-InsR cells. Cell lysis is achieved by addition of 80 μL MSD lysis buffer per aspirated well, incubation on ice for 20 min, and a freeze-thaw cycle. Target phosphorylation is then assessed by transferring volumes corresponding to approx. 6 μg Hek293-IGF1R or 0.6 μg Hek293-InsR lysates to MSD assay plates pre-coated with total-IGF1R or total-InsR Abs, respectively. After incubation for 2 h at rt, wells are exposed for 1 hr to a rabbit monoclonal antibody (CST #3024, 1:1000) detecting pIGF1R(Tyr1135/1136) as well as pINSR(Tyr1150/1151). Immune complexes are detected by a SULFO-Tag™-coupled anti-rabbit IgG antibody in the presence of 150 μL MSD read-buffer. Light emission at 620 nm triggered by application of electric current is recorded on a MSD SectorImager 6000. Acquired raw data (mean Ru-ECL units) are processed in an Excel analysis template. The plate blank (MSD lysis buffer) is subtracted from all data points. The effect of a particular test compound concentration on receptor phosphorylation is expressed relative to the window defined by ligand-stimulated vs unstimulated control cells (set as 100%). IC50 values [nM] are determined using 4-parametric curve-fitting (XLfit software, V4.3.2). Alternatively, the assay can be conducted with a slightly different format; Compound-mediated inhibition of IGF-1R and InsR phosphorylation in HEK293 cells overexpressing the corresponding receptors were assessed by quantitative Western blot using an Odyssey infrared imager as readout.
Sequence of IGF1R (P08069 31-1367): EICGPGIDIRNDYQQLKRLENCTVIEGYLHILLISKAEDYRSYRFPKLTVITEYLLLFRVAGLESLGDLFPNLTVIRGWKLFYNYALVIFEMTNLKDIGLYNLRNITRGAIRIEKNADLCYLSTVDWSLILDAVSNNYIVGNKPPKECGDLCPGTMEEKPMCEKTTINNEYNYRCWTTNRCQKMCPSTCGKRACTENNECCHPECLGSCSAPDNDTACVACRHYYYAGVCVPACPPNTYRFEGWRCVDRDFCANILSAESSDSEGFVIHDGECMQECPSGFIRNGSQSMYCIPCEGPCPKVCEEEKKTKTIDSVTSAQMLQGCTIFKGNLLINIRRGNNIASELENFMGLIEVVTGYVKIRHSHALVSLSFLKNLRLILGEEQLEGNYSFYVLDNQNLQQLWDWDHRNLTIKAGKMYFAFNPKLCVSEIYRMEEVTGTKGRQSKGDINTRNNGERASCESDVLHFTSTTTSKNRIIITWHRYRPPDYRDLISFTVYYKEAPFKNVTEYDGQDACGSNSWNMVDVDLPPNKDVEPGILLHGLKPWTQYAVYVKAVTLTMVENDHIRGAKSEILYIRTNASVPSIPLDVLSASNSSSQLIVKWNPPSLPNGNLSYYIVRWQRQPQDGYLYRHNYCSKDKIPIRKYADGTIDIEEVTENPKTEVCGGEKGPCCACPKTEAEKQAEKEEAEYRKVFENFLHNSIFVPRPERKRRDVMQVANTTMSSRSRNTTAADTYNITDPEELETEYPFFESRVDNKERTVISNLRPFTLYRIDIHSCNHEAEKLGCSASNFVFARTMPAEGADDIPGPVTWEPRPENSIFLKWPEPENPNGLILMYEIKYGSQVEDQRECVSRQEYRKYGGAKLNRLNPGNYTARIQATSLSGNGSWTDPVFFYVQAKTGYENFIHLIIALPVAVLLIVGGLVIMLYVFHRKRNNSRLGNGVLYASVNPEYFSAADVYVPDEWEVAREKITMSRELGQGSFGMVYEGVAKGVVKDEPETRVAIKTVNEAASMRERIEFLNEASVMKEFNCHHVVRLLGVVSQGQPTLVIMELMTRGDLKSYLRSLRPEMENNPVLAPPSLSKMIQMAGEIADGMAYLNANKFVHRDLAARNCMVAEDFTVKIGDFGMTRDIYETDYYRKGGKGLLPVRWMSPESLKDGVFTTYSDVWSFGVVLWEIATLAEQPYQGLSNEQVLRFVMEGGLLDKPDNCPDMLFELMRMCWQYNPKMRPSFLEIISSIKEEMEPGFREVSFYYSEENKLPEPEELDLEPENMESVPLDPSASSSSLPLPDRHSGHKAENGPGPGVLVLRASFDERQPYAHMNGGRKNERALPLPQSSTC
Compound-mediated inhibition of IGF1R and INSR phosphorylation in Hek293 cells transduced with the corresponding receptors is assessed in a capture ELISA format using the MSD (Meso Scale Discovery) platform. Briefly, 30′000 cells washed and diluted in starvation medium (DMEM high glucose supplemented with 0.1% BSA) are seeded in 90 μL per well into 96-well plates pre-coated with poly-D-lysine (0.1 mg/mL in PBS/O). After 24 h incubation at 37° C. and 5% CO2, dose-response effects are determined with 3-fold serial compound dilutions, starting at 10 μM. The final vehicle concentration is 0.1% DMSO in all wells. Following pre-incubation with compounds for 1 h, receptor phosphorylation is triggered by a 10 min exposure to 1.0 ng/μL IGF for Hek293-IGF1R cells, and 5.0 ng/μL insulin for Hek293-InsR cells. Cell lysis is achieved by addition of 80 μL MSD lysis buffer per aspirated well, incubation on ice for 20 min, and a freeze-thaw cycle. Target phosphorylation is then assessed by transferring volumes corresponding to approx. 6 μg Hek293-IGF1R or 0.6 μg Hek293-lnsR lysates to MSD assay plates pre-coated with total-IGF1R or total-lnsR Abs, respectively. After incubation for 2 h at rt, wells are exposed for 1 hr to a rabbit monoclonal antibody (CST #3024, 1:1000) detecting pIGF1R(Tyr1135/1136) as well as pINSR(Tyr1150/1151). Immune complexes are detected by a SULFO-Tag™-coupled anti-rabbit IgG antibody in the presence of 150 μL MSD read-buffer. […]
Regarding `Nc1ncnc2c1c(-c1ccc3c(c1)OC(c1ccccn1)CC3)cn2[C@H]1C[C@@H](CN2CCS(=O)(=O)CC2)C1` (mixture of isomers) [Example 54, (±)-7-(cis-3-(1,1-dioxo-thiomorpholin-4-ylmethyl)cyclobutyl)-5-(2-(pyridin-2-yl)chroman-7-yl)-7H-pyrrolo[2,3-d]pyrimidin-4-amine], the IC50 (in general, the point on the concentration scale where inhibition reaches its midpoint) was found to be 45 nM.
Consider `CC(=O)N[C@H]1CC[C@@H](n2cc(-c3ccc4c(c3)OC(c3ccccc3)CC4)c3c(N)ncnc32)CC1` (mixture of isomers) [Example 55, (±)-N-(cis-4-(4-amino-5-(2-phenylchroman-7-yl)-7H-pyrrolo[2,3-d]pyrimidin-7-yl)cyclohexyl)acetamide], for which it took 108 nM to reach half-maximal inhibition (IC50).
For `Nc1ncnc2c1c(-c1ccc3c(c1)OC(c1ccccn1)CC3)cn2[C@H]1C[C@@](O)(CO)C1` (mixture of isomers) [Example 56, (±)-(E)-3-(4-amino-5-(2-(pyridin-2-yl)chroman-7-yl)-7H-pyrrolo[2,3-d]pyrimidin-7-yl)-1-(hydroxymethyl)cyclobutanol] the value was 548 nM; for `Nc1ncnc2c1c(-c1ccc3c(c1)OC(c1ccccn1)CC3)cn2[C@H]1C[C@@H](CN2CC[S+]([O-])CC2)C1` (mixture of isomers) [Example 63, (±)-7-(cis-3-(1-oxo-thiomorpholin-4-ylmethyl)cyclobutyl)-5-(2-(pyridin-2-yl)chroman-7-yl)-7H-pyrrolo[2,3-d]pyrimidin-4-amine], 109 nM; for `Nc1ncnc2c1c(-c1ccc3c(c1)OC(C1CCCO1)CC3)cn2[C@H]1CC[C@@H](N2CCS(=O)(=O)CC2)CC1` (mixture of isomers) [Example 64, (±)-7-[cis-4-(1,1-dioxo-1λ6-thiomorpholin-4-yl)-cyclohexyl]-5-[2-trans-(tetrahydro-furan-2-yl)chroman-7-yl]-7H-pyrrolo[2,3-d]pyrimidin-4-ylamine], 59 nM.
`Nc1ncnc2c1c(-c1ccc3c(c1)OC(C1CCCO1)CC3)cn2[C@H]1CC[C@@H](N2CCS(=O)(=O)CC2)CC1` (mixture of isomers) [Example 65, (±)-7-[cis-4-(1,1-dioxo-1λ6-thiomorpholin-4-yl)-cyclohexyl]-5-[2-cis-(tetrahydro-furan-2-yl)chroman-7-yl]-7H-pyrrolo[2,3-d]pyrimidin-4-ylamine] yielded a 50% inhibitory concentration (IC50) of 39 nM.
In the case of `Nc1nccn2c1c(-c1ccc3c(c1)O[C@@H](c1ccccc1)C=C3)nc2[C@H]1C[C@@H](CO)C1` (relative stereo) [Example 22, (R,S)-{cis-3-[8-Amino-1-(2-phenyl-2H-chromen-7-yl)-imidazo[1,5-a]pyrazin-3-yl]-cyclobutyl}-methanol], the midpoint of inhibition, the IC50, lay at 179 nM.
For `Nc1nccn2c1c(-c1ccc3c(c1)OC(c1ccccc1)CC3)nc2[C@H]1C[C@@H](Cn2ccnc2CO)C1` (relative stereo) [Example 39, (1-{cis-3-[8-Amino-1-(2-phenyl-chroman-7-yl)-imidazo[1,5-a]pyrazin-3-yl]-cyclobutylmethyl}-1H-imidazol-2-yl)-methanol] the value was 218 nM; for `Nc1ncnc2c1c(-c1ccc3c(c1)OC(c1ccccc1)CC3)cn2[C@H]1C[C@@H](O)C1` (relative stereo) [Example 48, cis-3-[4-Amino-5-(2-phenyl-chroman-7-yl)-pyrrolo[2,3-d]pyrimidin-7-yl]-cyclobutanol], 88 nM; for `Nc1ncnc2c1c(-c1ccc3c(c1)OC(c1ccccc1)CC3)cn2[C@H]1C[C@H](O)C1` (relative stereo) [Example 49, trans-3-[4-Amino-5-(2-phenyl-chroman-7-yl)-pyrrolo[2,3-d]pyrimidin-7-yl]-cyclobutanol], 96 nM.
`CCOCC1CCc2ccc(-c3cn([C@H]4C[C@@H](CN5CC[S+]([O-])CC5)C4)c4ncnc(N)c34)cc2O1` (relative stereo) [Example 50, 5-(2-Ethoxymethyl-chroman-7-yl)-7-[cis-3-(1-oxo-thiomorpholin-4-ylmethyl)-cyclobutyl]-7H-pyrrolo[2,3-d]pyrimidin-4-ylamine] returned an IC50 of 36 nM.
For `Nc1ncnc2c1c(-c1ccc3c(c1)OC(c1ccccc1)CC3)cn2C1CC(O)(CO)C1` (single isomer, unassigned) [Example 27] the value was 31 to 112 nM; for `Nc1ncnc2c1c(-c1ccc3c(c1)OC(C1CCCO1)CC3)cn2C1CC(CN2CCS(=O)(=O)CC2)C1` (single isomer, unassigned) [Example 30, (I)-7-[cis-3-(1,1-Dioxo-1-thiomorpholin-4-ylmethyl)-cyclobutyl]-5-[2-(tetrahydro-furan-2-yl)-chroman-7-yl]-7H-pyrrolo[2,3-d]pyrimidin-4-ylamine], 4 to 5 nM; for `Nc1ncnc2c1c(-c1ccc3c(c1)OC(C1CCCO1)CC3)cn2C1CC(CN2CCS(=O)(=O)CC2)C1` (single isomer, unassigned) [Example 31, (u)-7-[3-(1,1-Dioxo-1-thiomorpholin-4-ylmethyl)-cyclobutyl]-5-[2-(tetrahydro-furan-2-yl)-chroman-7-yl]-7H-pyrrolo[2,3-d]pyrimidin-4-ylamine], 7 nM.
In turn, `Nc1ncnc2c1c(-c1ccc3c(c1)OC(C1CCCO1)CC3)cn2C1CC(O)(CO)C1` (single isomer, unassigned) [Example 32, (I)-(E)-3-{4-Amino-5-[2-(tetrahydro-furan-2-yl)-chroman-7-yl]-pyrrolo[2,3-d]pyrimidin-7-yl}-1-hydroxymethyl-cyclobutanol] gave a 50% inhibitory concentration (IC50) of 183 nM.
For `Nc1ncnc2c1c(-c1ccc3c(c1)OC(C1CCCO1)CC3)cn2C1CC(O)(CO)C1` (single isomer, unassigned) [Example 33, (u)-(E)-3-{4-amino-5-[2-(tetrahydro-furan-2-yl)-chroman-7-yl]-pyrrolo[2,3-d]pyrimidin-7-yl}-1-hydroxymethyl-cyclobutanol] the value was 395 nM; for `Nc1ncnc2c1c(-c1ccc3c(c1)OC(C1CCCO1)CC3)cn2C1CC(O)(CO)C1` (single isomer, unassigned) [Example 35], 55 nM.
For `Nc1ncnc2c1c(-c1ccc3c(c1)OC(c1ccccc1)CC3)cn2C1CC(O)(CO)C1` (single isomer, unassigned) [Example 41, (Z)-3-K-Amino-5-(2-phenyl-chroman-7-yl)-pyrrolo[2,3-d]pyrimidin-7-yl]-1-hydroxymethyl-cyclobutanol] the value was 44 to 143 nM; for `Nc1ncnc2c1c(-c1ccc3c(c1)OC(c1ccccc1)CC3)cn2C1CC(O)(CO)C1` (single isomer, unassigned) [Example 42, (Z)-3-K-Amino-5-(2-phenyl-chroman-7-yl)-pyrrolo[2,3-d]pyrimidin-7-yl]-1-hydroxymethyl-cyclobutanol], 272 to 338 nM.
`Nc1ncnc2c1c(-c1ccc3c(c1)O[C@H](c1ccccc1)CC3)cn2[C@H]1C[C@@H](CO)C1` [Example 11, {cis-3-[4-Amino-5-((S)-2-phenyl-chroman-7-yl)-pyrrolo[2,3-d]pyrimidin-7-yl]-cyclobutyl}-methanol] returned an IC50 of 19 nM.
In the case of `Nc1ncnc2c1c(-c1ccc3c(c1)O[C@@H](c1ccccc1)CC3)cn2[C@H]1C[C@@H](CO)C1` [Example 12, {cis-3-[4-Amino-5-((R)-2-phenyl-chroman-7-yl)-pyrrolo[2,3-d]pyrimidin-7-yl]-cyclobutyl}-methanol], the half-maximal inhibitory concentration (IC50) was 55 nM.
